Data as given in patent publication US11866695B2, “Methods and systems and related compositions for mixtures separation with a solid matrix” (CALIFORNIA INSTITUTE OF TECHNOLOGY, priority 2019, dated 2024).
“Also recorded” adds a separate entry of the source.

Tests used:
LAMP reaction mix = experiment: 3-step Zymo ZR extraction with viral wash buffer replaced, LAMP with 2× dilution of eluent; type: biochemical; conditions: wash replaces viral wash buffer; 5 μL eluent in 10 μL
Experimental: Three different silica-column kits were tested, including: Zymo ZR Viral DNA/RNA Kit (outdated protocol, D7021), Zymo Quick-DNA/RNA Kit (updated protocol, D7021), and the QIAquick PCR Purification Kit (28104, Qiagen). For all silica-column kits, fresh collection tubes were used after each spin and centrifugation speeds were set to 16,000×g. Centrifugation was performed on either an Eppendorf 5415D centrifuge (Eppendorf, Hauppauge, N.Y., USA) or a Thermo Fisher Scientific AccuSpin Micro 17R centrifuge (13-100-676). It was noted that the QIAquick protocol calls for 17,900×g, but instead was run at 16,000×g which was the max speed for the Eppendorf 5415D. For both Zymo kits, 750 μL lysed sample was prepared by mixing 125 μL sample with 125 μL Zymo 2×DNA/RNA Shield and 500 μL Viral DNA/RNA Buffer. For the Zymo ZR Viral DNA/RNA kit, 750 μL lysed sample was centrifuge for 1 min, 500 μL Zymo Viral Wash Buffer was centrifuged for 2 min, and 50 μL nuclease-free water was centrifuged for 30 s into a clean 1.5 mL tube. Optionally, either a dry spin or 300 μL TPW was centrifuged for 2 min in between the Viral Wash Buffer and elution steps. […] For the QIAquick PCR Purification Kit, 125 μL sample was mixed with 625 μL Buffer PB without indicator. 750 μL lysed sample was centrifuged for 30 s, followed by 750 μL Buffer PE for 30 s, a dry spin for 1 min, and 50 μL nuclease-free water for 1 min. Optionally, the dry spin was skipped or the dry spin was replaced with a 300 μL TPW and centrifuged for 1 min.
Exchanging the ethanol wash for a TPW could be useful for applications in which the starting sample is already relatively pure. For this experiment, Zymo ZR kit was used, which has three centrifugation steps: lysis (sample, shield, lysis buffer), wash (ethanol-based viral wash buffer), and elution (water). […] An aliquot of 5 μL of the resulting eluent was added to 5 μL of LAMP reaction mix and amplified at 68° C. Eluent from the manufacturer protocol amplified in 5.7 min. […]

[1] = Phase separation of compounds mixed at a 1:1 volume ratio; type: physicochemical; set-up: key: A “2” denotes phase separation into 2 distinct phases; a “1” forms a single phase
[2] = tested on: LAMP spiked with 5×104 copies λ phage DNA; experiment: TPW screen with LAMP (1 μL wash candidate added to 10 μL reaction); type: biochemical; conditions: 1 μL candidate in 11 μL total
Experimental: LAMP primers (Integrated DNA Technologies (IDT), Coralville, Iowa, USA) were designed, ordered, and added at NEB's recommended concentrations of […] FIP/BIP, 0.2μM F3/B3, and […] LoopF/B.
Each 96-well plate was sealed and briefly spun. […] Time-to-positive (TTP) was determined when the software's automated baseline corrected fluorescence reached 1000 RFU.
Criterion 1a was investigated directly by performing qPCR and LAMP reactions. Reactions were spiked with λ phage DNA, diluted up to 10 μL, and an additional 1 μL of different wash buffer candidates was added to a total of 11 μL. […] As an experimental control, a “No Additive” condition was tested, which was a 10 μL reaction with optimized reaction conditions and no inhibitors. To control for the effects of a 1 μL dilution on the reaction, a “Water” condition which was an 11 μL reaction with no inhibitors was also tested.

SMILES	LAMP performance of eluent (LAMP reaction mix)	Number of phases ([1]; mixed 1:1 (volume) with Ethanol)	Number of phases ([1]; mixed 1:1 (volume) with H2O)	Number of phases ([1]; mixed 1:1 (volume) with VWB (80% ethanol v/v))	Avg TTP ([2]; N.D. = not detected within 40 min) [min]	ΔTTP ([2]; minus the No additive control) [min]
CCO [Ethanol, ethanol]	slightly outperforms the viral wash buffer; also recorded: performed slightly better (earlier TTP) than the viral wash buffer	–	–	–	–	–
CCCCCCCCCCCO [1-undecanol]	–	1	2	1	6.70	0.16
